According to patent publication US9284323B2, “Naphthalene acetic acid derivatives against HIV infection” (Gilead Sciences, Inc., priority 2012, dated 2016):
pEC50: −log10 of the molar value.

Each compound was assayed on HIV-IIIb (assay: Test A: Antiviral Assays in MT4 Cells). Details: Human immunodeficiency virus 1, IIIB, MT4, 120 h, Table I; MT-4 cells infected with HIV-IIIb, 5 days incubation, CellTiter-Glo readout.
Assay type: cell-based
Procedure: The antiviral properties of a compound disclosed herein may be determined using Test A described below.
Test A: Antiviral Assays in MT4 Cells
For the antiviral assay utilizing MT-4 cells, 0.4 μL of […] test concentration of 3-fold serially diluted compound in DMSO was added to 40 μL of cell growth medium (RPMI 1640, 10% FBS, 1% penicillin/Streptomycin, 1% L-Glutamine, 1% HEPES) in each well of 384-well assay plates (10 concentrations) in quadruplicate.
1 mL aliquots of 2×10e6 MT-4 cells are pre-infected for 1 and 3 hrs respectively, @ 37° C. with 25 μL (MT4) or of either cell growth medium (mock-infected) or a fresh 1:250 dilution of an HIV-IIIb concentrated ABI stock (0.004 m.o.i. for MT4 cells). Infected and uninfected cells are diluted in cell growth medium and 35 μL of 2000 (for MT4) cells is added to each well of the assay plates.
Assay plates were then incubated in a 37° C. incubator. After 5 days of incubation, 25 μl of 2× concentrated CellTiter-Glo™ Reagent (catalog # G7573, Promega Biosciences, Inc., Madison, Wis.) was added to each well of the assay plate. Cell lysis was carried out by incubating at room temperature for 2-3 min and then chemiluminescence was read using the Envision reader (PerkinElmer).

Question: `Cc1cc2ccc(C#CC(O)(c3ccccc3)C(F)(F)F)cc2c(-c2ccc(Cl)cc2)c1[C@H](OC(C)(C)C)C(=O)O` (stereo partly drawn) [Example 9, (2S)-2-tert-butoxy-2-(1-(4-chlorophenyl)-3-methyl-7-(4,4,4-trifluoro-3-hydroxy-3-phenylbut-1-ynyl)naphthalen-2-yl)acetic acid] was tested. Which pEC50 did it give?
Answer: 6.73

Question: How did the pEC50 turn out when `Cc1cc2ccc(C#CC(C)(O)c3ccncc3)cc2c(-c2ccc(Cl)cc2)c1[C@H](OC(C)(C)C)C(=O)O` (stereo partly drawn) [Example 12, (2S)-2-tert-Butoxy-2-(1-(4-chlorophenyl)-7-(3-hydroxy-3-(pyridin-4-yl)but-1-ynyl)-3-methylnaphthalen-2-yl)acetic acid] was run?
Answer: 7.49

Question: With `Cc1ccc2c(-c3ccc4c5c(ccnc35)CCO4)c([C@H](OC(C)(C)C)C(=O)O)c(C)cc2c1` (atropisomer, axis not shown) [Example 16, (S)-2-tert-butoxy-2-((S)-1-(2,3-dihydropyrano[4,3,2-de]quinolin-7-yl)-3,6-dimethylnaphthalen-2-yl)acetic acid] as the compound, how does the pEC50 read?
Answer: 5.76

Question: With `Cc1cc2cc(C#CC3CC3)ccc2c(-c2ccc3c4c(ccnc24)CCO3)c1[C@H](OC(C)(C)C)C(=O)O` (atropisomer, axis not shown) [Example 21, (S)-2-tert-Butoxy-2-((R)-6-(cyclopropylethynyl)-1-(2,3-dihydropyrano[4,3,2-de]quinolin-7-yl)-3-methylnaphthalen-2-yl)acetic acid] as the compound, how does the pEC50 read?
Answer: 6.77

Question: `Cc1ccc2cc(C)c([C@H](OC(C)(C)C)C(=O)O)c(-c3ccc4c5c(ccnc35)CCO4)c2c1` (atropisomer, axis not shown) [Example 15, (S)-2-tert-Butoxy-2-((R)-1-(2,3-dihydropyrano[4,3,2-de]quinolin-7-yl)-3,7-dimethylnaphthalen-2-yl)acetic acid] was tested. Which pEC50 did it give?
Answer: 7.47

Question: How did the pEC50 turn out when `CCCC(C)(C)O[C@H](C(=O)O)c1c(C)cc2ccccc2c1-c1ccc2c3c(ccnc13)CCO2` (atropisomer, axis not shown) [Example 29, (S)-2-((R)-1-(2,3-Dihydropyrano[4,3,2-de]quinolin-7-yl)-3-methylnaphthalen-2-yl)-2-(2-methylpentan-2-yloxy)acetic acid] was run?
Answer: 7.08

Same assay, conditions: Human immunodeficiency virus 1, IIIB, MT4, 120 h, Table II; MT-4 cells infected with HIV-IIIb, 5 days incubation, CellTiter-Glo readout

Question: `Cc1cc2cc(-c3cnc(N4CCN(C)CC4)nc3)ccc2c(-c2ccc3c4c(ccnc24)CCO3)c1[C@H](OC(C)(C)C)C(=O)O` (atropisomer, axis not shown) [Example 35] was tested. Which pEC50 did it give?
Answer: 8.36

Question: With `Cc1cc2ccccc2c(-c2ccc3c4c(ccnc24)CCO3)c1[C@H](OC(C)(C)CCl)C(=O)O` (atropisomer, axis not shown) [Example 99] as the compound, how does the pEC50 read?
Answer: 7.39

Question: How did the pEC50 turn out when `Cc1cc2cc(-c3cncnc3C(C)C)ccc2c(-c2ccc3c4c(ccnc24)CCO3)c1[C@H](OC(C)(C)C)C(=O)O` (atropisomer, axis not shown) [Example 62] was run?
Answer: 7.39

Question: How did the pEC50 turn out when `Cc1cc2c(C)c(-c3cnc(N4CCN(C)CC4)nc3)ccc2c(-c2ccc3c4c(ccnc24)CCO3)c1[C@H](OC(C)(C)C)C(=O)O` (atropisomer, axis not shown) [Example 71] was run?
Answer: 8.37

Question: With `Cc1cc2ccc(-c3cccc(-c4ccc5c(cnn5C)c4)c3)cc2c(-c2ccc(Cl)cc2)c1[C@H](OC(C)(C)C)C(=O)O` [Example 88] as the compound, how does the pEC50 read?
Answer: 5.46

Question: `Cc1cc2ccccc2c(-c2ccc3c4c(ccnc24)CCO3)c1[C@@H](OC(C)(C)CCl)C(=O)O` (atropisomer, axis not shown) [Example 98] was tested. Which pEC50 did it give?
Answer: 4.71

Question: `Cc1cc2ccccc2c(-c2ccc3c4c(ccnc24)CCO3)c1C(OC(C)(CF)CF)C(=O)O` (stereo not drawn) [Example 106] was tested. Which pEC50 did it give?
Answer: 7.39

Question: How did the pEC50 turn out when `Cc1cc2ccccc2c(-c2ccc3c4c(ccnc24)CCO3)c1[C@H](OC(C)(C)CF)C(=O)O` (atropisomer, axis not shown) [Example 102] was run?
Answer: 7.74

Question: How did the pEC50 turn out when `Cc1cc2ccccc2c(-c2ccc3c4c(ccnc24)CCO3)c1C(OC(C)(C)CCl)C(=O)O` (stereo not drawn) [Example 100] was run?
Answer: 6.79

Question: With `Cc1cc2ccccc2c(-c2ccc3c4c(ccnc24)CCO3)c1[C@@H](OC(C)(CF)CF)C(=O)O` (atropisomer, axis not shown) [Example 104] as the compound, how does the pEC50 read?
Answer: 5.53

Question: With `Cc1cc2cc(-c3cnc(N(C)C)nc3)ccc2c(-c2ccc3c4c(ccnc24)CCO3)c1[C@H](OC(C)(C)C)C(=O)O` (atropisomer, axis not shown) [Example 48] as the compound, how does the pEC50 read?
Answer: 7.98

Question: `Cc1cc2cc(-c3cnc(N)nc3)ccc2c(-c2ccc3c4c(ccnc24)CCO3)c1[C@H](OC(C)(C)C)C(=O)O` (atropisomer, axis not shown) [Example 55] was tested. Which pEC50 did it give?
Answer: 8.12

Question: With `Cc1cc2cc(-c3cnc(N4CCOCC4)nc3)ccc2c(-c2ccc3c4c(ccnc24)CCO3)c1[C@H](OC(C)(C)C)C(=O)O` (atropisomer, axis not shown) [Example 52] as the compound, how does the pEC50 read?
Answer: 7.77

Question: With `Cc1cc2ccccc2c(-c2ccc3c4c(ccnc24)CCO3)c1[C@H](OC(C)(C)CCCCS(N)(=O)=O)C(=O)O` (atropisomer, axis not shown) [Example 95] as the compound, how does the pEC50 read?
Answer: 6.41

Question: How did the pEC50 turn out when `Cc1cc2c(C(F)F)c(C)ccc2c(-c2ccc3c4c(ccnc24)CCO3)c1[C@H](OC(C)(C)C)C(=O)O` (atropisomer, axis not shown) [Example 70] was run?
Answer: 7.94

Question: With `Cc1ccc2c(-c3ccc4c5c(ccnc35)CCO4)c([C@@H](OC(C)(C)CF)C(=O)O)c(C)cc2c1` (atropisomer, axis not shown) [Example 63] as the compound, how does the pEC50 read?
Answer: 5.77

Question: `CC(=O)Nc1c(C)c([C@H](OC(C)(C)C)C(=O)O)c(-c2ccc3c4c(ccnc24)CCO3)c2ccccc12` (atropisomer, axis not shown) [Example 89] was tested. Which pEC50 did it give?
Answer: 6.66

Same assay, conditions: Table I; MT-4 cells infected with HIV-IIIb, 5 days incubation, CellTiter-Glo readout

Question: With `CCOCC(C)(C)O[C@H](C(=O)O)c1c(C)cc2ccccc2c1-c1ccc2c3c(ccnc13)CCO2` (atropisomer, axis not shown) [Example 27, (2S)-2-((R)-1-(2,3-Dihydropyrano[4,3,2-de]quinolin-7-yl)-3-methylnaphthalen-2-yl)-2-(1-ethoxy-2-methylpropan-2-yloxy)acetic acid] as the compound, how does the pEC50 read?
Answer: 7.08

Question: `CCOCC(C)(C)O[C@H](C(=O)O)c1c(C)cc2ccccc2c1-c1ccc2c3c(ccnc13)CCO2` (atropisomer, axis not shown) [Example 28, (2S)-2-((S)-1-(2,3-Dihydropyrano[4,3,2-de]quinolin-7-yl)-3-methylnaphthalen-2-yl)-2-(1-ethoxy-2-methylpropan-2-yloxy)acetic acid] was tested. Which pEC50 did it give?
Answer: 5.91

Same assay, conditions: Table II; MT-4 cells infected with HIV-IIIb, 5 days incubation, CellTiter-Glo readout

Question: With `Cc1cc2c(C)c(-c3cnc(N(C)C)nc3)ccc2c(-c2ccc3c4c(ccnc24)CCO3)c1[C@H](OC(C)(C)C)C(=O)O` (atropisomer, axis not shown) [Example 72] as the compound, how does the pEC50 read?
Answer: 5.15

Question: `Cc1cc2cc(-c3cnc(-c4cncnc4)nc3)ccc2c(-c2ccc3c4c(ccnc24)CCO3)c1[C@H](OC(C)(C)C)C(=O)O` (atropisomer, axis not shown) [Example 39] was tested. Which pEC50 did it give?
Answer: 5.06

Question: `Cc1cc2cc(-c3cnc(-c4ccccc4)nc3)ccc2c(-c2ccc3c4c(ccnc24)CCO3)c1[C@H](OC(C)(C)C)C(=O)O` (atropisomer, axis not shown) [Example 36] was tested. Which pEC50 did it give?
Answer: 7.00

Question: With `Cc1cc2cc(C#Cc3cncnc3)ccc2c(-c2ccc3c4c(ccnc24)CCO3)c1[C@H](OC(C)(C)C)C(=O)O` (atropisomer, axis not shown) [Example 42] as the compound, how does the pEC50 read?
Answer: 4.27

Question: How did the pEC50 turn out when `Cc1cc2cc(C#Cc3cncnc3)ccc2c(-c2ccc3c4c(ccnc24)CCO3)c1[C@H](OC(C)(C)C)C(=O)O` (atropisomer, axis not shown) [Example 43] was run?
Answer: 6.92

Question: `Cc1cc2cc(-c3c(C)ncnc3C)ccc2c(-c2ccc3c4c(ccnc24)CCO3)c1[C@H](OC(C)(C)C)C(=O)O` (atropisomer, axis not shown) [Example 59] was tested. Which pEC50 did it give?
Answer: 6.33

Question: `Cc1cc2cc(-c3cnc(-c4ccccc4)nc3)ccc2c(-c2ccc3c4c(ccnc24)CCO3)c1[C@H](OC(C)(C)C)C(=O)O` (atropisomer, axis not shown) [Example 37] was tested. Which pEC50 did it give?
Answer: 5.35

Question: How did the pEC50 turn out when `Cc1cc2c(C)c(-c3cnc(N(C)C)nc3)ccc2c(-c2ccc3c4c(ccnc24)CCO3)c1[C@H](OC(C)(C)C)C(=O)O` (atropisomer, axis not shown) [Example 73] was run?
Answer: 8.05

Question: How did the pEC50 turn out when `CC(C)(C)O[C@H](C(=O)O)c1c2c(c3ccccc3c1-c1ccc3c4c(ccnc14)CCO3)CCC2` (atropisomer, axis not shown) [Example 33] was run?
Answer: 5.78

Question: How did the pEC50 turn out when `Cc1cc2cc(-c3cncnc3N)ccc2c(-c2ccc3c4c(ccnc24)CCO3)c1[C@H](OC(C)(C)C)C(=O)O` (atropisomer, axis not shown) [Example 53] was run?
Answer: 7.13

Question: With `Cc1cc2cc(-c3cncnc3C)ccc2c(-c2ccc3c4c(ccnc24)CCO3)c1[C@H](OC(C)(C)C)C(=O)O` (atropisomer, axis not shown) [Example 56] as the compound, how does the pEC50 read?
Answer: 7.52

Question: How did the pEC50 turn out when `Cc1cc2cccc(F)c2c(-c2ccc3c4c(ccnc24)CCO3)c1[C@H](OC(C)(C)C)C(=O)O` (atropisomer, axis not shown) [Example 68] was run?
Answer: 5.53

Question: How did the pEC50 turn out when `Cc1cc2cc(-c3cnc(-c4cncnc4)nc3)ccc2c(-c2ccc3c4c(ccnc24)CCO3)c1[C@H](OC(C)(C)C)C(=O)O` (atropisomer, axis not shown) [Example 38] was run?
Answer: 7.34

Question: How did the pEC50 turn out when `CC(C)(C)O[C@H](C(=O)O)c1c(-c2ccc3c4c(ccnc24)CCO3)c2ccccc2c2occc12` (atropisomer, axis not shown) [Example 76] was run?
Answer: 6.93
